In ChEMBL document CHEMBL3507680, “University of Dundee, Gates Library screen for HepG2 cell viability”:

Assay: Human HepG2 cell viability assay in 384 well format
Assay type: toxicity, cell-based
Set-up: dose 125 nL, time 70.5 hour; concentration not given beside the values
Conditions: HepG2 cells, read-out: Inhibition

Structure (SMILES)	cytotoxicity at 70.5 h [%]
O=C(NC1CC1)C1CCN(Cn2nc(-c3ccccc3)oc2=O)CC1	25.1
NC(=O)c1ccc(N2CCCCC2)c(NC(=O)c2cc(Br)ccc2Cl)c1	16.1
CCCNC(=O)Cc1c(C)nc2c(c1C)c(=O)[nH]n2C	1.36
NC(=O)C1CCN(Cn2nc(-c3ccc(F)cc3)oc2=O)C1 (configuration not stated)	-7.79
CC(NC(=O)NCc1cscn1)c1ccc(N2CCOCC2)cc1 (configuration not stated)	-0.548
CCc1nc(CN2CCCN(c3ncnc4ccsc34)CC2)no1	8.93
CCc1nc(CN2CCCN(c3cnc4ccccc4n3)CC2)no1	-2.11
CC(C)(C)c1nc(CNC2CCCN(c3cccnn3)C2)no1 (configuration not stated)	-0.0267
c1cnnc(N2CCCC(NCc3nc(-c4cccs4)no3)C2)c1 (configuration not stated)	-6.61
NS(=O)(=O)CCNC(=O)C1(c2ccccc2)CC1	-1.21
Cc1cc(Cl)ccc1S(=O)(=O)NCC(C)N1CCN(C)CC1 (configuration not stated)	-0.894
Cc1ccc(-c2ccc(C(=O)NCC(N)=O)c(F)c2)cc1	1.46
Cc1nc(CN2CCN(c3ncnc4ccccc34)CC2)no1	4.67
COc1ncccc1C(=O)NC1(c2cccc(F)c2)CCOCC1	22.6
CN(C)c1cc(C(=O)NC2(c3cccc(F)c3)CCOCC2)ccn1	-1.02
Cc1cc(CNC(=O)NCc2ccccc2N2CCOCC2)no1	1.76
CC(C)(C)OC(=O)N1CCCc2ccc(NCc3cc[nH]c3)cc21	-9.07
CC(C)C1CN(C(=O)c2ccccc2)CCS1 (configuration not stated)	2.34
CC(C)C1CN(C(=O)c2ccncc2)CCS1 (configuration not stated)	-1.14
CC(CNS(=O)(=O)c1cccc(Cl)c1)N1CCN(C)CC1 (configuration not stated)	-5.03
Cc1ccc(S(=O)(=O)NCCCN2CCC(O)CC2)c(F)c1	18.4
CN(Cc1ccc(F)cc1)C(=O)CN1CCCCC1Cn1cncn1 (configuration not stated)	-3.07
CC(C)c1cccc(S(=O)(=O)NCCCN2CCC(O)CC2)c1	3.11
CN1CC(C(=O)N2CCC(Oc3ccccc3Cl)CC2)CC1=O (configuration not stated)	-1.46

Structure (SMILES)	cytotoxicity at 70.5 h [%]
Cc1cn2c(n1)CCC(NC(=O)CCOc1ccccc1F)C2 (configuration not stated)	-5.57
Cc1cc(C)n(C2CN(CC(=O)N(C)Cc3cnn(C)c3)C2)n1	-7
O=C(c1ccoc1)N1CCN(Cc2ccccc2F)CC1	-3.32
Cc1ccc(CNC(=O)NC(C)CN2CCOCC2)s1 (configuration not stated)	-6.15
COC(=O)N1CCN(Cc2csc(-c3ncccn3)n2)CC1	-5.37
O=C(COc1cccc2c1CCC2=O)NCC(F)(F)F	-2.4
N#CCc1ccc(NC(=O)CNc2ccc(Br)cc2F)cc1	-7.86
Cc1ccc(C)c(NC(=O)c2cc(S(=O)(=O)N3CCSCC3)c[nH]2)c1	7.14
Cc1nnc(NC(=O)c2cc(S(=O)(=O)N3CCSCC3)c[nH]2)s1	-0.0324
CC(CN1CCOCC1)NC(=O)NCc1cccs1 (configuration not stated)	-7.69
CCc1nnc2n1CCN(C(=O)C(OC)c1ccccc1)C2 (configuration not stated)	-8.62
c1cnc(N2CCC(NCc3cnc(C4CCC4)s3)CC2)nc1	-11.5
c1ccc(CN2CCC(NCCc3ccc4c(c3)CCO4)CC2)nc1	0.552
COCCOc1cc(C(=O)N2CC(C)c3ccccc32)ccn1 (configuration not stated)	-11.1
COc1cccc(NC(C(N)=O)c2ccc(Br)cc2)c1 (configuration not stated)	-10.7
NC(=O)CN1CCC(NC(=O)N2CCCC2c2ccsc2)CC1 (configuration not stated)	-6.14
CN(C(=O)CN1CCCc2cc(F)cc(F)c21)c1ccccc1	-16.8
CC(C)N(Cc1ccccc1)Cc1csc(-c2ncccn2)n1	-10.1
Cc1nnc2n1CCN(C(=O)CN1C(=O)CCOc3ccccc31)C2	-7.17
Cc1noc(C)c1CN(C)C(=O)c1ccc2c(c1O)OC(C)(C)C2	1.38
N#Cc1ccc(NCc2cccc(COC3CCOCC3)c2)nc1	-2.1
CC(C)Cc1nc(COc2ccc(N(C)C(N)=O)cc2)no1	-2.35
Cn1cccc1C(=O)NS(=O)(=O)c1cnn(-c2ccccc2F)c1	11.6
COC(C)c1cccc(NC(=O)N(CCC#N)Cc2ccccn2)c1 (configuration not stated)	-6.49

Structure (SMILES)	cytotoxicity at 70.5 h [%]
CCc1cnc(CN2C(=O)CC3(CCSC3)C2=O)o1 (configuration not stated)	11.4
CC(C)c1nc(S(=O)(=O)N2CCSc3ccccc32)c[nH]1	-3.59
O=C(C1CCCOC1)N1CCCCc2ccccc21 (configuration not stated)	-12.1
CCN1CCN(C(=O)c2c[nH]c(C(C)C)n2)c2ccccc21	2.09
CC(C)c1nnc(CN(C)C(c2ccccc2)c2ccc(F)cc2)o1 (configuration not stated)	-2.6
O=C(C1CCCOC1)N1CCCc2ccccc21 (configuration not stated)	-4.78
CC(C)c1nnc(CN(C)C(c2ccc(F)cc2)c2cccnc2)o1 (configuration not stated)	-2.85
CCN1CCN(S(=O)(=O)c2cn(C(C)C)cn2)c2ccccc21	-1.25
Cc1cc(CNc2ccc3nc(C)sc3c2)no1	-4.46
COCCN(Cc1ccccc1)Cc1csc(-c2ncccn2)n1	-4.86
CC(C)N(CC(N)=O)Cc1csc(-c2ncccn2)n1	-2.81
CN(C)C(=O)c1csc(-c2ccoc2)n1	27.9
OCC1(CNC2CCc3cc4c(cc32)OCCO4)CC1 (configuration not stated)	22.1
Cc1sc2nc(SC(C)c3nc(C(C)(C)C)no3)nc(N)c2c1C (configuration not stated)	21.9
CCN(C(=O)CN1CCCC1c1cccs1)c1ccccc1C (configuration not stated)	30.3
CN(Cc1nccn1C)C(=O)C1COCC(=O)N1Cc1ccccc1 (configuration not stated)	30.1
CC(C)Cn1ncc2cc(C(=O)N(C)Cc3cccc(O)c3)cnc21	11.7
CC(C)N(C(=O)c1csc(-c2ccoc2)n1)C1CCOCC1	-10.2
Cc1n[nH]c(C2CN(Cc3ncc(C(C)C)o3)CCO2)n1 (configuration not stated)	0.362
CC(C)c1cccc(-n2cc(O)c(C(=O)NCCC(=O)N(C)C)n2)c1	-6.63
O=C1CCCc2[nH]c(=O)c(C(=O)N(CC3CCCCC3)C3CC3)cc21	-7.98
CN(CC1CCC1)C(=O)c1ccc(-c2nc(C3CC3)n[nH]2)cc1	-8.67
CN(CC(O)C1CC1)C(=O)c1ccc(-c2nc(C3CC3)n[nH]2)cc1 (configuration not stated)	-7.71
CS(=O)(=O)c1cccc(S(=O)(=O)NCCCN2CCNC(=O)C2)c1	-5.37

Structure (SMILES)	cytotoxicity at 70.5 h [%]
CC(=O)N(CCc1nc(-c2cc(C(N)=O)co2)cs1)C(C)C	2.32
CC(C)c1nccn1CCC(=O)N1CCCC1c1cccn1C (configuration not stated)	-3.96
Cc1c(C(=O)N2CCC(C(O)c3ccc(Cl)cc3)CC2)cnn1C (configuration not stated)	-3.74
O=S(=O)(N1CCCCC1)N1CCOC2(CCCC2)C1	-0.763
COCc1nc(CNc2cccc(-c3csc(C)n3)c2)cs1	-0.82
COc1cccc(S(=O)(=O)CCNC(C)Cn2cccn2)c1 (configuration not stated)	4.6
CC(=O)N(CCc1nc(-c2cc(C(N)=O)oc2C)cs1)C(C)C	-8.28
CCN(C(=O)CN1CCCC1c1cc(C)no1)c1ccccc1C (configuration not stated)	-6.07
OCCNC1CCc2cc3c(cc21)OCCO3 (configuration not stated)	9.99
CN(c1nc(CSc2nnc(Cn3cncn3)o2)cs1)C1CC1	0.758
CC(NC(=O)Nc1nccs1)C(=O)NC1CCCC1 (configuration not stated)	0.896
CC(NC(=O)Nc1nncs1)C(=O)NC1CCCC1 (configuration not stated)	-8.75
CC(=O)NCCC(=O)NCc1ccc(Br)cc1Cl	-0.899
Cc1cc(NC(=O)CN(c2ccccc2)C(C)C)on1	0.413
N#Cc1ccnc(SCC2CN=C(N3CCOCC3)S2)c1 (configuration not stated)	2.81
CC(C)c1nc(CSc2nnc(Cn3cncn3)o2)cs1	0.92
CSc1nc(C2CC2)nc(C)c1C(=O)NCc1ccco1	16.1
Cc1nc(CNC(=O)NC2CCN(c3cccc(Cl)c3)C2)no1 (configuration not stated)	-1.4
O=C(NCCc1ccccn1)N1CCSC2(CCCCC2)C1	1.93
Cn1nccc1CNC(=O)NC1CCN(c2ncccc2Cl)C1 (configuration not stated)	-0.776
Cc1[nH]ncc1C(C)NCc1ccc(F)cc1 (configuration not stated)	-1.27
COc1ccc(S(=O)(=O)NC2(CC(N)=O)CCC2)cc1	20.9
Cc1nc(CNC(=O)NC2CCN(c3ncccc3Cl)C2)oc1C (configuration not stated)	14.8
Cc1nc(O)ccc1C(=O)N1CCCC1c1nc(-c2ccccc2)n[nH]1 (configuration not stated)	0.447

Structure (SMILES)	cytotoxicity at 70.5 h [%]
CN1CCN(Cc2cccc(NCc3cc[nH]n3)c2)CC1	-5.29
c1ccc(NCc2ccsc2)c(Cn2cncn2)c1	-15.1
CC(C)(C)c1ncc(CNc2ccccc2Cn2cncn2)s1	-8.54
CC(CO)(NC(=O)Nc1nnc(C2CC2)s1)C1CCCCC1 (configuration not stated)	-11.1
Cn1ccc(C(=O)NCc2ccccc2Cn2ccnc2)cc1=O	-8.24
CCC(CC)c1nnc(NC(=O)N2CCCC(NC(C)=O)C2)s1 (configuration not stated)	-5.89
COc1cc(OC)c(CNC(=O)NCC(=O)N2CCCC2)c(OC)c1	-6.53
CC(C)NC(=O)C1CCN(C(C)C(=O)N2CCc3sccc3C2)CC1 (configuration not stated)	-2.44
CC(C)N(Cc1cnn(C)c1)C(=O)c1ccnc(N(C)C)c1	-7.21
CNC(=O)CN1CCC(NC(=O)CC(C)CCc2ccccc2)CC1 (configuration not stated)	12.1
CCOc1ccc(C(=O)N(Cc2cnn(C)c2)C(C)C)cc1	-1.86
Cn1ccc(C(=O)NCc2ccc(Cn3ccnc3)cc2)cc1=O	-1.16
CCN(CC)CCCN1CCC(NC(=O)OC(C)(C)C)CC1	-4.36
CCN1CCN(CCNc2nc3ccc(C)cc3c(=O)n2C)CC1	11.8
CCOc1ccnc(N2CCN(C(=O)CCc3cnn(C)c3)CC2)n1	-4.83
NC(=O)C1CCCN1Cc1ccccc1NC(=O)CC(F)(F)F (configuration not stated)	-3.67
Cc1ccc(C(=O)NS(C)(=O)=O)cc1S(C)(=O)=O	3.46
CCCC(C)NC(=O)CCN1C(=O)CCc2cc(F)ccc21 (configuration not stated)	2.38
c1cncc(-c2nc3c(c(NCC4(c5ccncc5)CC4)n2)CCC3)c1	-0.48
CCN(CC)C(=O)Nc1ccc(C(=O)N(C)C)c(C)c1	2.13
CCOC(C)c1noc(CN(C)C(=O)c2cc3ccccn3c2)n1 (configuration not stated)	-3.99
